Results from PubChem BioAssay AID2060499 (Molecular Pharmacology Branch, DTP, NCI, 2025).

Tested on: 777334-354-R2-J4-PDC tumor spheroids with HUVEC/MSC, viability
Assay: Anticancer human tumor 777334-354-R2-J4-PDC patient-derived pancreatic adenocarcinoma cell line growth inhibition [GQUAD]
Conditions: for IC50: curve of first compound; for viability, T/C: stronger effect = lower value
Excerpt: DNA G-quadruplex Stabilizer Agents in Combinations in Complex Spheroids
A high-throughput screen of multi-cell type tumor spheroids was designed to identify active combinations of DNA G-quadruplex stabilizer agents and targeted small molecules. Complex spheroids include a stromal component modeled by human endothelial cells (HUVEC) and fibroblasts modeled by human mesenchymal stem cells (MSCs). The concentration ranges selected for each drug and investigational agent were based upon clinically achievable concentrations if the clinical Cmax of the agent was known.
Compounds. The drugs and investigational agents: pidnarulex (CX-5461; NSC782164), APTO-253 (NSC789042), BRACO-19 (NSC847499), peposertib (NSC802822), ceralasertib (NSC780249), elimusertib (NSC800525), camonsertib (NSC841442), AZD-1390 (NSC803789), olaparib (NSC753686), talazoparib (NSC767125), ART-558 (NSC835418), sotorasib (NSC818433), MRTX-1133 (NSC836407), SN-38 (NSC673596), topotecan (NSC609699), etoposide (NSC141540), doxorubicin (NSC123127), gemcitabine (NSC613327), 5-fluorouracil (NSC19893), paclitaxel (NSC125973), vemurafenib (NSC761431), panobinostat (NSC761190), R-306465 (JNJ-16241199; NSC773264), adavosertib (NSC754352), TP-3654 (NSC805149), carboplatin (NSC241240), KSQ-4279 (NSC840948), and staurosporine (NSC755774) were obtained from the National Cancer Institute (NCI) Developmental Therapeutics Program Chemical Repository (34). The FDA-approved anticancer drug set is available from the NCI Developmental Therapeutics Program. […] The stock solutions were prepared in dimethyl sulfoxide (DMSO, Sigma-Aldrich, St. Louis, MO, cat. D2650) at 800-fold the tested concentration and stored at -70 degrees C prior to their use. All drugs and investigational agents were tested over a range starting from a high concentration at or near the clinical Cmax and decreasing in half-log increments. If the clinical Cmax for an agent had not been determined, the highest concentration tested was 10 microM.
2.3 Cell Culture. All cells were maintained in an incubator at 37 degrees C and 5% CO2 with 95% humidity. The PDC lines were cultured according to standard operating procedures established by the NCI PDMR. All PDCs were thawed and cultured in Matrigel-coated flasks prepared with a working solution of 1X Ham's F-12 nutrient mix, without supplementation (Invitrogen, cat. 11765054), 100 U/mL penicillin-streptomycin (Invitrogen, cat. 15140122), and 2.5% Matrigel (Corning Inc., cat. 354248) for the first three passages. The 857933-349-R-J2-PDC line was cultured in 6C/Colon 1B media, which includes advanced DMEM/F-12 (Thermo Fisher Scientific, cat. 12634028), 10 mM HEPES (Thermo Fisher Scientific, cat. 15630080), 1X GlutaMAX supplement (Thermo Fisher Scientific, cat. 35050061), 0.1 mg/mL primocin (InvivoGen, cat. ant-pm-2), 10% defined fetal bovine serum, heat inactivated (HyClone Laboratories Inc., cat. SH30070.03HI), 50% L-WRN conditioned media (ATCC, cat. CRL-3276), 1.25 mM N-Acetyl-L-cysteine (Sigma-Aldrich, cat. A9165), 10 mM nicotinamide (Sigma-Aldrich, cat. N0636), 1X B-27 supplement (Thermo Fisher Scientific, cat. 17504044), 1X N-2 supplement (Thermo Fisher Scientific, cat. 17502048), 10 microM Y-27632 dihydrochloride (Tocris Bioscience, cat. 1254), and 50 ng/mL human EGF recombinant protein (Thermo Fisher Scientific, cat. PHG0311). The 485176-168-R4-J1-PDC line was cultured in Panc media, which includes all 6C/Colon 1B media components plus 100 ng/mL human FGF-10 (Thermo Fisher Scientific, cat. 100-26), 500 nM SB-431542 (Selleckchem, cat. S1067), and gastrin (Tocris, cat. 3006).
[…]

[1] = second compound 0.0316 µM, first compound 0.0316 µM
[2] = second compound 0.0316 µM, first compound 0.1 µM
[3] = second compound 0.0316 µM, first compound 0.316 µM
[4] = second compound 0.0316 µM, first compound 1 µM
[5] = second compound 0.0316 µM, first compound 3.16 µM
[6] = second compound 0.0316 µM, first compound 10 µM
[7] = second compound 0.1 µM, first compound 0.0316 µM
[8] = second compound 0.1 µM, first compound 0.1 µM
[9] = second compound 0.1 µM, first compound 0.316 µM
[10] = second compound 0.1 µM, first compound 1 µM
[11] = second compound 0.1 µM, first compound 3.16 µM
[12] = second compound 0.1 µM, first compound 10 µM
[13] = second compound 0.316 µM, first compound 0.0316 µM
[14] = second compound 0.316 µM, first compound 0.1 µM
[15] = second compound 0.316 µM, first compound 0.316 µM
[16] = second compound 0.316 µM, first compound 1 µM
[17] = second compound 0.316 µM, first compound 3.16 µM
[18] = second compound 0.316 µM, first compound 10 µM
[19] = second compound 1 µM, first compound 0.0316 µM
[20] = second compound 1 µM, first compound 0.1 µM
[21] = second compound 1 µM, first compound 0.316 µM
[22] = second compound 1 µM, first compound 1 µM
[23] = second compound 1 µM, first compound 3.16 µM
[24] = second compound 1 µM, first compound 10 µM
[25] = second compound 3.16 µM, first compound 0.0316 µM
[26] = second compound 3.16 µM, first compound 0.1 µM
[27] = second compound 3.16 µM, first compound 0.316 µM
[28] = second compound 3.16 µM, first compound 1 µM
[29] = second compound 3.16 µM, first compound 3.16 µM
[30] = second compound 3.16 µM, first compound 10 µM
[31] = second compound 10 µM, first compound 0.0316 µM
[32] = second compound 10 µM, first compound 0.1 µM
[33] = second compound 10 µM, first compound 0.316 µM
[34] = second compound 10 µM, first compound 1 µM
[35] = second compound 10 µM, first compound 3.16 µM
[36] = second compound 10 µM, first compound 10 µM
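Further: spheroids exposed to compounds for 7 days before readout.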

SMILES: CC1COCCN1c1cc(-c2ccnn2C)c2ccnc(-c3ccn[nH]3)c2n1 (centres undefined) + Cc1[nH]c2ccc(F)cc2c1-c1nc2c3cccnc3c3ncccc3c2[nH]1
- IC50 (second compound 0.0316 µM): 0.894 µM
- IC50 (second compound 0.1 µM): 0.834 µM
- IC50 (second compound 0.316 µM): 0.483 µM
- IC50 (second compound 1 µM): 0.479 µM
- IC50 (second compound 3.16 µM): < 0.0316 µM
- IC50 (second compound 10 µM): < 0.0316 µM
- viability, T/C [1]: 91.3%
- viability, T/C [2]: 74.2%
- viability, T/C [3]: 62.4%
- viability, T/C [4]: 44.4%
- viability, T/C [5]: 44%
- viability, T/C [6]: 31.1%
- viability, T/C [7]: 93.7%
- viability, T/C [8]: 67.1%
- viability, T/C [9]: 63.5%
- viability, T/C [10]: 46.4%
- viability, T/C [11]: 41.5%
- viability, T/C [12]: 29.4%
- viability, T/C [13]: 90.9%
- viability, T/C [14]: 79.6%
- viability, T/C [15]: 48.7%
- viability, T/C [16]: 46.6%
- viability, T/C [17]: 39.5%
- viability, T/C [18]: 29.7%
- viability, T/C [19]: 68.7%
- viability, T/C [20]: 65.2%
- viability, T/C [21]: 53.2%
- viability, T/C [22]: 39.9%
- viability, T/C [23]: 35.6%
- viability, T/C [24]: 19.1%
- viability, T/C [25]: 26.4%
- viability, T/C [26]: 23.9%
- viability, T/C [27]: 18.9%
- viability, T/C [28]: 11.1%
- viability, T/C [29]: 8.41%
- viability, T/C [30]: 8.24%
- viability, T/C [31]: 33.5%
- viability, T/C [32]: 19.5%
- viability, T/C [33]: 14.9%
- viability, T/C [34]: 11.7%
- viability, T/C [35]: 12.7%
- viability, T/C [36]: 11.6%

SMILES: Cc1cccc(N(C)C(=O)C2C(O)CCN2c2nc(C)cc(C(F)(F)F)c2C#N)c1 (centres undefined) + Cc1cnc(CNC(=O)c2c(=O)c3ccc(N4CCCN(C)CC4)nc3n3c2sc2ccccc23)cn1
- IC50 (second compound 0.0316 µM): > 10 µM
- IC50 (second compound 0.1 µM): > 10 µM
- IC50 (second compound 0.316 µM): > 10 µM
- IC50 (second compound 1 µM): > 10 µM
- IC50 (second compound 3.16 µM): > 10 µM
- IC50 (second compound 10 µM): > 10 µM
- viability, T/C [1]: 103%
- viability, T/C [2]: 91.3%
- viability, T/C [3]: 107%
- viability, T/C [4]: 94.5%
- viability, T/C [5]: 105%
- viability, T/C [6]: 100%
- viability, T/C [7]: 108%
- viability, T/C [8]: 92.2%
- viability, T/C [9]: 93.6%
- viability, T/C [10]: 83.5%
- viability, T/C [11]: 95%
- viability, T/C [12]: 85%
- viability, T/C [13]: 82.6%
- viability, T/C [14]: 84.9%
- viability, T/C [15]: 78.1%
- viability, T/C [16]: 84.8%
- viability, T/C [17]: 80.7%
- viability, T/C [18]: 91.7%
- viability, T/C [19]: 65.3%
- viability, T/C [20]: 73%
- viability, T/C [21]: 79.5%
- viability, T/C [22]: 75.8%
- viability, T/C [23]: 71.2%
- viability, T/C [24]: 65.5%
- viability, T/C [25]: 59.3%
- viability, T/C [26]: 67%
- viability, T/C [27]: 58.4%
- viability, T/C [28]: 62.3%
- viability, T/C [29]: 67.2%
- viability, T/C [30]: 60.6%
- viability, T/C [31]: 63%
- viability, T/C [32]: 63.2%
- viability, T/C [33]: 59.6%
- viability, T/C [34]: 64.5%
- viability, T/C [35]: 64.5%
- viability, T/C [36]: 62.7%
